# Experimental data from US7659404B2, “Broad spectrum 2-(substituted-amino)-benzothiazole sulfonamide HIV protease inhibitors” (Tibotec Pharmaceuticals Ltd., priority 2001, dated 2010).
# Columns and labels:
# [1] = system: clinically isolated HIV strain P; assay: Antiviral spectrum, cellular assay (fold resistance), strain P; format: cell-based; details: FR=EC50(mutant strain)/EC50(HIV-1 strain LAI)
# Experimental: (§1) HIV- or mock-infected MT4 cells were incubated for five days in the presence of various concentrations of the inhibitor. At the end of the incubation period, all HIV-infected cells have been killed by the replicating virus in the control cultures in the absence of any inhibitor. Cell viability is measured by measuring the concentration of MTT, a yellow, water soluble tetrazolium dye that is converted to a purple, water insoluble formazan in the mitochondria of living cells only. Upon solubilization of the resulting formazan crystals with isopropanol, the absorbance of the solution is monitored at 540 nm. The values correlate directly to the number of living cells remaining in the culture at the completion of the five day incubation. The inhibitory activity of the compound was monitored on the virus-infected cells and was expressed as EC50 and EC90. These values represent the amount of the compound required to protect 50% and 90%, respectively, of the cells from the cytopathogenic effect of the virus. The toxicity of the compound was measured on the mock-infected cells and was expressed as CC50, which represents the concentration of compound required to inhibit the growth of the cells by 50%. The selectivity index (SI) (ratio CC50/EC50) is an indication of the selectivity of the anti-HIV activity of the inhibitor.
# (§2) Because of the increasing emergence of drug resistant HIV strains, the present compounds were tested for their potency against clinically isolated HIV strains harboring several mutations. These mutations are associated with resistance to protease inhibitors and result in viruses that show various degrees of phenotypic cross-resistance to the currently commercially available drugs such as for instance saquinavir, ritonavir, nelfinavir, indinavir and amprenavir.
# (§3) As a measure of the broad spectrum activity of the present compounds, the fold resistance (FR) defined as FR=EC50(mutant strain)/EC50(HIV-1 strain LAI).
# [2] = system: clinically isolated HIV strain C; assay: Antiviral spectrum, cellular assay (fold resistance), strain C; format: cell-based; details: FR=EC50(mutant strain)/EC50(HIV-1 strain LAI)
# Experimental: as §1, §2, §3
# [3] = system: clinically isolated HIV strain R; assay: Antiviral spectrum, cellular assay (fold resistance), strain R; format: cell-based; details: FR=EC50(mutant strain)/EC50(HIV-1 strain LAI)
# Experimental: as §1, §2, §3
# [4] = system: clinically isolated HIV strain E; assay: Antiviral spectrum, cellular assay (fold resistance), strain E; format: cell-based; details: FR=EC50(mutant strain)/EC50(HIV-1 strain LAI)
# Experimental: as §1, §2, §3
# [5] = system: clinically isolated HIV strain D; assay: Antiviral spectrum, cellular assay (fold resistance), strain D; format: cell-based; details: FR=EC50(mutant strain)/EC50(HIV-1 strain LAI)
# Experimental: as §1, §2, §3
# [6] = system: clinically isolated HIV strain G; assay: Antiviral spectrum, cellular assay (fold resistance), strain G; format: cell-based; details: FR=EC50(mutant strain)/EC50(HIV-1 strain LAI)
# Experimental: as §1, §2, §3
# [7] = system: clinically isolated HIV strain K; assay: Antiviral spectrum, cellular assay (fold resistance), strain K; format: cell-based; details: FR=EC50(mutant strain)/EC50(HIV-1 strain LAI)
# Experimental: as §1, §2, §3
# [8] = system: clinically isolated HIV strain L; assay: Antiviral spectrum, cellular assay (fold resistance), strain L; format: cell-based; details: FR=EC50(mutant strain)/EC50(HIV-1 strain LAI)
# Experimental: as §1, §2, §3
# [9] = system: clinically isolated HIV strain A; assay: Antiviral spectrum, cellular assay (fold resistance), strain A; format: cell-based; details: FR=EC50(mutant strain)/EC50(HIV-1 strain LAI)
# Experimental: as §1, §2, §3
# virus strain F (R13025) = assay: microbe, parasite or virus in culture; format: cell-based, HIV; details: FR=EC50(mutant strain)/EC50(HIV-1 strain LAI); strain F
# Outline: (§4)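 Activity against mutation-bearing clinical isolates is given as fold resistance, the ratio of mutant to HIV-1 LAI EC50. EC50 and EC90 reflect 50% and 90% protection of infected MT4 cells over a five-day culture. Cell survival was quantified by MTT formazan absorbance at 540 nm.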
# virus strain S (R13080) = assay: microbe, parasite or virus in culture; format: cell-based, HIV; details: FR=EC50(mutant strain)/EC50(HIV-1 strain LAI); strain S
# Outline: as §4
# [10] = system: clinically isolated HIV strain B; assay: Antiviral spectrum, cellular assay (fold resistance), strain B; format: cell-based; details: FR=EC50(mutant strain)/EC50(HIV-1 strain LAI)
# Experimental: as §1, §2, §3
# HIV-1 strain LAI = assay: Cellular anti-HIV assay in MT4 cells (MTT), wild type laboratory strain; format: cell-based; details: Human immunodeficiency virus 1, 120 h; MT4 cells, five days, MTT; read-out: EC50 value against HIV-1 strain LAI
# Experimental: The compounds of the present invention were examined for anti-viral activity in a cellular assay. […] The cellular assay was performed according to the following procedure.
# Cellular Assay Experimental Method:
# as §1
# [11] = system: clinically isolated HIV strain M; assay: Antiviral spectrum, cellular assay (fold resistance), strain M; format: cell-based; details: FR=EC50(mutant strain)/EC50(HIV-1 strain LAI)
# Experimental: as §1, §2, §3
# [12] = system: clinically isolated HIV strain N; assay: Antiviral spectrum, cellular assay (fold resistance), strain N; format: cell-based; details: FR=EC50(mutant strain)/EC50(HIV-1 strain LAI)
# Experimental: as §1, §2, §3
# [13] = system: clinically isolated HIV strain J; format: cell-based; details: FR=EC50(mutant strain)/EC50(HIV-1 strain LAI)
# Outline: as §4
# [14] = system: clinically isolated HIV strain H; format: cell-based; details: FR=EC50(mutant strain)/EC50(HIV-1 strain LAI)
# Outline: as §4
# [15] = system: clinically isolated HIV strain O; format: cell-based; details: FR=EC50(mutant strain)/EC50(HIV-1 strain LAI)
# Outline: as §4
# [16] = system: clinically isolated HIV strain I; format: cell-based; details: FR=EC50(mutant strain)/EC50(HIV-1 strain LAI)
# Outline: as §4
# [17] = system: clinically isolated HIV strain T; format: cell-based; details: FR=EC50(mutant strain)/EC50(HIV-1 strain LAI)
# Outline: as §4
# [18] = system: clinically isolated HIV strain Q; assay: Antiviral spectrum, cellular assay (fold resistance), strain Q; format: cell-based; details: FR=EC50(mutant strain)/EC50(HIV-1 strain LAI)
# Experimental: as §1, §2, §3
SMILES,"fold resistance (FR), strain P [1]","fold resistance (FR), strain C [2]","fold resistance (FR), strain R [3]","fold resistance (FR), strain E [4]","fold resistance (FR), strain D [5]","fold resistance (FR), strain G [6]","fold resistance (FR), strain K [7]","fold resistance (FR), strain L [8]","fold resistance (FR), strain A [9]","fold resistance (FR), strain F (virus strain F (R13025))","fold resistance (FR), strain S (virus strain S (R13080))","fold resistance (FR), strain B [10]","fold resistance (FR), strain M [11]","fold resistance (FR), strain N [12]","fold resistance (FR), strain J [13]","fold resistance (FR), strain H [14]","fold resistance (FR), strain O [15]","fold resistance (FR), strain I [16]","fold resistance (FR), strain T [17]","fold resistance (FR), strain Q [18]",other results
Cc1cc(N)ccc1C(=O)NC(Cc1ccccc1)C(O)CN(CC(C)C)S(=O)(=O)c1ccc2nc(NC(=O)CN(C)C)sc2c1 (centres unmarked) [Compound 43],0.2,1.1,1.0,0.7,0.9,0.6,0.4,1.0,1.1,1.1,3.0,0.9,1.2,1.2,3.4,1.3,2.4,1.5,31.4,1.1,EC50 (HIV-1 strain LAI): < 50 nM
CCOC(=O)Nc1nc2ccc(S(=O)(=O)N(CC(C)C)CC(O)C(Cc3ccccc3)NC(=O)OC3COC4OCCC34)cc2s1 (centres unmarked) [Compound 2],0.2,0.2,0.3,0.4,0.3,0.2,0.2,0.2,0.3,1.1,1.7,0.2,0.3,1.1,0.4,1.0,0.8,0.7,29.6,0.3,EC50 (HIV-1 strain LAI): < 50 nM
CC(C)CN(CC(O)C(Cc1ccccc1)NC(=O)OC1COC2OCCC12)S(=O)(=O)c1ccc2nc(NC(=O)CN3CCCC3)sc2c1 (mixture of isomers) [Compound 7],0.1,0.5,0.4,0.3,0.5,0.2,0.3,0.1,0.2,0.5,2.0,0.3,0.1,0.5,0.4,0.5,0.4,0.5,12.4,0.4,–
CC(C)CN(CC(O)C(Cc1ccccc1)NC(=O)OC1COC2OCCC12)S(=O)(=O)c1ccc2nc(NC(=O)CN3CCCC3)sc2c1 (centres unmarked) [Compound 12],0.1,0.3,0.4,0.4,0.4,0.2,0.2,0.1,0.3,0.4,0.8,0.4,0.2,0.4,0.3,0.4,0.4,0.4,5.9,0.4,EC50 (HIV-1 strain LAI): < 50 nM
CC(C)CN(C[C@@H](O)[C@H](Cc1ccccc1)NC(=O)O[C@H]1CO[C@H]2OCC[C@H]21)S(=O)(=O)c1ccc2nc(NC(=O)CN3CCCC3)sc2c1.O=C(O)C(=O)O [Compound 15],0.1,0.3,0.2,0.3,0.3,0.3,0.3,0.1,0.3,0.5,0.8,0.2,0.2,0.4,0.3,0.5,0.2,0.3,7.2,0.2,–
CC(C)CN(C[C@@H](O)[C@H](Cc1ccccc1)NC(=O)O[C@H]1CO[C@H]2OCC[C@H]21)S(=O)(=O)c1ccc2nc(NC(=O)CN3CCCC3)sc2c1.O=C(O)/C=C/C(=O)O [Compound 13],0.2,0.2,0.2,0.2,0.2,0.2,0.2,0.1,0.2,0.6,1.0,0.2,0.2,1.0,0.2,0.6,0.3,0.3,5.8,0.4,–
CC(C)CN(CC(O)C(Cc1ccccc1)NC(=O)OC1COC2OCCC12)S(=O)(=O)c1ccc2nc(NC(=O)CN3CCOCC3)sc2c1 (mixture of isomers) [Compound 10],0.3,0.6,0.3,0.4,0.5,0.5,0.3,0.2,0.4,0.5,0.5,0.4,0.3,0.0,0.3,0.4,0.4,0.4,4.9,0.3,–
